As usually defined, the EC50 is the concentration that produces a half-maximal response. Read a low EC50 as a more potent agent. The ED50 is the dose that gives a 50% effect, or the effect in half of the subjects.

This is an account of results in patent publication US4548944A, “Guanidino-heterocyclyl-phenyl-amidines and salts thereof” (Istituto de Angeli S.p.A., priority 1982, dated 1985).

Data set [1] has as its target T1, histamine H2 -receptors (Cavia porcellus, UniProt P47747).
T1 construct: isolated guinea pig atria suspended in an organ bath; from tissue; host or cells: isolated guinea pig atria
The data set can be described thus: In vitro inhibition of histamine-induced tachycardia (positive chronotropic effect) in isolated guinea pig atria. Conditions: Krebs-Henseleit pH 7.4, 32° C., histamine 10^-6 g/ml, 30 min contact. How it is done: The myocardial preparation, loaded with 1 gm isometric tension, was allowed to stabilize 60 minutes, and myocardial contractions were recorded through an isometric lever connected to a strain-gauge coupler, and the instantaneous rate was monitored with a cardiotachometer and a heat-writing pen recorder. After two control responses to histamine (10^-6 g/ml) the test compound was added to the bath at the desired final concentration and left for 30 minutes before the atria were again challenged with histamine. The chronotropic obtained in the presence of the antagonist was then compared to the control response to histamine, and the percent reduction of the histamine H2 -evoked response was calculated. […] 3, Smooth muscle, Ed. Daniel, E. E. Paton, M., Plenum Press, New York (1975); Ash and Schild, Br. J.Pharmacol. Chemother. 27, 427-439, 1966.

The target in data set [2] is T2, histamine H2 -receptors (Rattus norvegicus, UniProt P25102).
T2 construct: intravenous or intraduodenal administration in stomach-perfused rats; from tissue; host or cells: stomach of the anesthetized living rat (in vivo)
The data set is described as follows: In vivo antisecretory activity on histamine-induced gastric secretion of acid (stomach-perfused rat). Conditions: iv, histamine 1 mg/kg/hr, values expressed as base, read-out: ED50, inhibition of histamine-induced gastric secretion. The source says:
The ability of the test compounds to inhibit histamine-induced gastric secretion of acid was investigated after intravenous or intraduodenal administration in stomach-perfused rats, according to Gosh and Schild, Br. J. Pharmacol. Chemother. 13, 54, (1958).
The preparation of the animals under general anesthesia (urethane, 1 g/kg i.p.) and constant temperature, was achieved by inserting and tying in place polyethyl tubes (PE 50) in the esophagus and in the pyloricantral region. After the stomach was washed to remove residual of foods, continuous perfusion of the stomach was started with saline, 0.5 ml/min. (37° C.), primed by a Jobling peristaltic pump. After 30 minutes of perfusion adaptation, the stomach perfusate was collected in 30 min. samples, and titrated for acid content, expressed as μEq of NaOH 1N. As control acid output became constant, intravenous perfusion of histamine (1 mg/kg/hr) was started and maintained throughout the experimental period. After the acid secretion had reached the steadily higher level, increasing doses of the test compounds were injected intravenously in order to obtain dose-response functions. The ED50 was then calculated by standard procedure.

Another data set relates to Swiss mice. The data set is described as follows: Acute toxicity, single oral dose in Swiss mice. It is filed as in vivo. Conditions: 500 mg/kg, fasted 18 hours, mortality at 14 days, values expressed as base. The protocol:
The acute toxicity of the particularly preferred compounds of the formula I was approximately determined by oral administration of a single dose to groups of 5 Swiss mice, fasted for 18 hours before the test. The evaluation of the incidence of mortality was considered 14 days after the administration. The results are shown in the following table, in which the values are expressed taking the compound as a base.

For the next data set, the system named is gastric acid secretion. Conditions: cited from earlier work; for inhibition of gastric acid secretion relative to cimetidine: in vivo, literature.
In the next data set the test system is H2 -receptor. Conditions: in vitro, literature; cited from earlier work.

The structures appear in SMILES notation.

T2 sequence (P25102 whole entry, the tested form may be a part): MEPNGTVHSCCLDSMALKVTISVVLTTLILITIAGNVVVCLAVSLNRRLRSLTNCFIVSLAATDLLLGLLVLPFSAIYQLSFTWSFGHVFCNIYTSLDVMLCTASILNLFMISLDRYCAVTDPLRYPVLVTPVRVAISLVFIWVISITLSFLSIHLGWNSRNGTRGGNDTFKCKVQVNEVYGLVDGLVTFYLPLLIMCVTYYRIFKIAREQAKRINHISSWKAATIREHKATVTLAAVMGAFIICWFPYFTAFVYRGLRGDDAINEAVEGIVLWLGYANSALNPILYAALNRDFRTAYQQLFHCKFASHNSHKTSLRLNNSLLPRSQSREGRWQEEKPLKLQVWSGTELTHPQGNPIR
T1 sequence (P47747 whole entry): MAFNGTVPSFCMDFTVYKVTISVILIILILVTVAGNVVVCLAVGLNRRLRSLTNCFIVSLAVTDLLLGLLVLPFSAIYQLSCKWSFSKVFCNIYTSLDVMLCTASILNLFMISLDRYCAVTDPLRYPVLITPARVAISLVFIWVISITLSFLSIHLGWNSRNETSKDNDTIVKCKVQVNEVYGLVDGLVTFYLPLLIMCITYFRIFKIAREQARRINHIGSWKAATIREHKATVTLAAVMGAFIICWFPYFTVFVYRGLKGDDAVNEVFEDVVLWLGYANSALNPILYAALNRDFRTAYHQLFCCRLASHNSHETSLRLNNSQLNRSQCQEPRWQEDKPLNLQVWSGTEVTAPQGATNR

Molecule `CCNC=Nc1cccc(-c2csc(NC(=N)N)n2)c1` [14(a), N-Ethyl-N'-[3-(2-guanidino-4-thiazolyl)phenyl]-formamidine] gave a half-maximal effective concentration (EC50) on histamine H2 -receptors [1] of 530 nM. Besides, the ED50 on histamine H2 -receptors [2] came out at 0.013 mg/kg. Also, the “No. Dead/No. Treated Mice” value in the data set on Swiss mice is listed as 0/5.
With `CCNC=Nc1cccc(-c2nsc(NC(=N)N)n2)c1` [14(ap), N-Ethyl-N'-[3-(5-guanidino-1,2,4-thiadiazol-3-yl)-phenyl]-formamidine], at histamine H2 -receptors [1], it took 450 nM to reach a half-maximal effect (EC50). Besides, the 50% effective dose (ED50) on histamine H2 -receptors [2] came out at 0.051 mg/kg. In the data set with Swiss mice, the “No. Dead/No. Treated Mice” value was 0/5.
For `CCCNC=Nc1cccc(-c2csc(NC(=N)N)n2)c1` [14(b), N-Propyl-N'-[3-(2-guanidino-4-thiazolyl)-phenyl]-formamidine], in that order: 280 nM, 0.019 mg/kg and 0/5.
At histamine H2 -receptors [1], `CC(C)NC=Nc1cccc(-c2csc(NC(=N)N)n2)c1` [14(c), N-Isopropyl-N'-[3-(2-guanidino-4-thiazolyl)-phenyl]-formamidine] had an EC50 of 200 nM. In addition, the ED50 on histamine H2 -receptors [2] was 0.035 mg/kg. Besides, in the data set on Swiss mice, the “No. Dead/No. Treated Mice” value is 1/5.
For `CCCCNC=Nc1cccc(-c2csc(N=C(N)N)n2)c1` [14(d), N-Butyl-N'-[3-(2-quanidino-4-thiazolyl)-phenyl]-formamidine] the same measures were 550 nM, 0.073 mg/kg and 4/5.
Take `CCC(C)NC=Nc1cccc(-c2csc(NC(=N)N)n2)c1` (centres unmarked) [14(e), N-sec.Butyl-N'-[3-(2-guanidino-4-thiazolyl)-phenyl]-formamidine]: on histamine H2 -receptors [1], the EC50 stood at 300 nM. Besides, the 50% effective dose (ED50) at histamine H2 -receptors [2] was determined as 0.041 mg/kg. Further, in the data set with Swiss mice, the “No. Dead/No. Treated Mice” value is listed as 0/5.
The molecule `CC(C)CNC=Nc1cccc(-c2csc(NC(=N)N)n2)c1` [14(f), N-Isobutyl-N'-[3-(2-guanidino-4-thiazolyl)-phenyl]-formamidine] displayed an EC50 at histamine H2 -receptors [1] of 1200 nM. Moreover, the ED50 on histamine H2 -receptors [2] is 0.082 mg/kg. Further, the “No. Dead/No. Treated Mice” value in the data set on Swiss mice is 0/5.
For `C=CCNC=Nc1cccc(-c2csc(NC(=N)N)n2)c1` [14(j), N-Allyl-N'-[3-(2-guanidino-4-thiazolyl)-phenyl]-formamidine] the same measures were 330 nM, 0.02 mg/kg and 0/5.
For `C#CCNC=Nc1cccc(-c2csc(NC(=N)N)n2)c1` [14(l), N-Propargyl-N'-[3-(2-guanidino-4-thiazolyl)-phenyl]-formamidine], in that order: 3100 nM, 0.074 mg/kg and 0/5.
For `COCCNC=Nc1cccc(-c2csc(NC(=N)N)n2)c1` [14(p), N-(2-Methoxy-ethyl)-N'-[3-(2-guanidino-4-thiazolyl)-phenyl]-formamidine], in that order: 480 nM, 0.05 mg/kg and 0/5.
`N=C(N)Nc1nc(-c2cccc(N=CNCCCO)c2)cs1` [14(s), N-(3-Hydroxy-propyl)-N'-[3-(2-guanidino-4-thiazolyl)-phenyl]-formamidine]: the concentration giving a half-maximal response (EC50) on histamine H2 -receptors [1] was determined as 270 nM. Further, the 50% effective dose (ED50) on histamine H2 -receptors [2] is 0.028 mg/kg. The “No. Dead/No. Treated Mice” value with Swiss mice is listed as 0/5.
In turn, `CN/C=N/c1cccc(-c2csc(N=C(N)N)n2)c1` [Example 14, N-Methyl-N'-[3-(2-guanidino-4-thiazolyl)-phenyl]-formamidine] displayed an EC50 on histamine H2 -receptors [1] of 330 nM. The ED50 at histamine H2 -receptors [2] was found to be 0.02 mg/kg. The “No. Dead/No. Treated Mice” value in the data set on Swiss mice is 0/5.
In the case of `COc1ccc(CN(CCN(C)C)c2ccccn2)cc1` [mepyramine], the “effect on gastric acid secretion” value in the data set on gastric acid secretion (literature (Black et al.)) is “no effect on gastric acid secretion”.
Turning to `CNC(=C[N+](=O)[O-])NCCSCc1ccc(CN(C)C)o1` [ranitidine], in the data set on H2 -receptor, the “H2 -receptor antagonist potency relative to cimetidine” value is “more potent than cimetidine”. The “inhibition of gastric acid secretion relative to cimetidine” value in the data set with gastric acid secretion is “more potent than cimetidine”.
`CNC(=NCCSCc1csc(N=C(N)N)n1)NC#N` [tiotidine]: the “H2 -receptor antagonist potency relative to cimetidine” value in the data set on H2 -receptor was “more potent than cimetidine”. The “inhibition of gastric acid secretion relative to cimetidine” value with gastric acid secretion is given as “more potent than cimetidine”.
